Assay [1] relates to MDA-MB-231. The experiment in a line: Cell viability assay (MTT). In kind it is cell-based. The settings on record: Homo sapiens. The procedure: Cells plated at equal density were treated at 500 nM of compounds. […]
(§1) Cells plated at equal density were treated at 250 nM of 4c at 250 nM.
(§2) Data from 3 biologic replicates each with 2 technical replicates. Four parameter dose-response curves generated using GraphPad Prism are shown.
Cell viability relative to vehicle (100%) is shown.
(§3) […] Using CellTiter 96 Non-Radioactive Cell Proliferation Assay (Promega, Corp.) according to manufactures' instructions, formazan was used as an indicator of viable cells at an absorbance 570 nm in a Tecan Microplate Reader M100. Data was calculated as fold change from vehicle and fitted using the 4′parameter logic nonlinear regression model in GraphPad Prism software. (n=3 biologic replicates: with 3 technical replicates each).
A range of compounds were tested by MTT assays for cell viability in MDA-MB-231 triple negative breast cancer (TNBC) cells and MDA-MB-435 HER2++ cancer cells.

The subject of assay [2] is MDA-MB-435. The assay is described as follows: Cell viability assay (MTT). Type of assay: cell-based, human. The procedure: (§4) Cells plated at equal density were treated at 500 nM of compounds. After 72 hours, cell viability was measured by a MTT assay. n=3; * p<0.05, ** p<0.01, *** p<0.001.
as §1, §2
[…]. GI50 was calculated using Graph pad Prism.
as §3
A range of compounds were tested by MTT assays for cell viability in MDA-MB-231 triple negative breast cancer (TNBC) cells and MDA-MB-435 HER2++ cancer cells. […].

Assay [3] concerns Panc-1. The experiment in a line: Cell viability assay (MTT). In kind it is cell-based. The conditions noted are these: Homo sapiens, 120 hours, 0-1000 nM. As for the experimental part:
as §3

Assay [4] relates to Panc-1. The assay is described as follows: Wound healing assay. Type of assay: cell-based. The conditions noted are these: Homo sapiens, 24 hr, read-out: inhibition of Panc-1 cell migration. As for the experimental part:
(§5) Mircrographs were digitally acquired at 0, 12, and 24 hours and the area of the wound quantified relative to the distance at time 0. n=3.
Panc-1 cells plated at equal density were subjected to a scratch in the center and treated with 4c at 0, 150 nM, 250 nM, or 500 nM. Mircrographs were digitally acquired at 0, 12, and 24 hours and the area of the wound quantified relative to the distance at time 0. n=3.

In assay [5] the test system is RAW264.7 macrophage cell line. The assay is described as follows: Wound healing assay. Type of assay: cell-based, murine. The conditions noted are these: Mus musculus, read-out: inhibition of wound closure, RAW264.7. As for the experimental part:
as §5
Murine macrophage cell line, RAW264.7, plated at equal density were subjected to a scratch in the center and treated with 4c at 0, 150 nM, 250 nM, or 500 nM. Mircrographs were digitally acquired at 0, 12, and 24 hours and the area of the wound quantified relative to the distance at time 0. n=3.

In the next assay the test system is MCF-7. The assay is described as follows: Initial screening, SRB assay GI50. In kind it is cell-based. The settings on record: Homo sapiens, MCF7, 48 hrs. The procedure:
(§6) For initial screening, the GIso of compounds 4a-4h in the cell lines MDA-MB-231, MDA-MB-435 and MCF-7 was determined via the SRB-assay for 48 hrs as follows:
(§7) A stock solution of compounds was prepared at 50 mM in 100% DMSO. For cells preparation, a flask of 75 cm^2 or 25 cm^2 were used for 2.6×10^5 cells/mL or 1.44×10^5 cells/mL, respectively, with an 80-90% of confluence. Cells were washed with PBS and trypsinized. The concentration of cells was determined using a 1:2 dilutions with Trypan Blue and a hemocytometer. After cell count, the concentration was adjusted to have a 7.0-10.0×10^4 cells/mL. Approximately 100 μL of cells suspension, compounds, control positive and control negative were added in triplicates to a 96 well plate. Positive control used was doxorubicin, and the negative control was DMSO 0.1%. All compounds (4a-h) at 50, 25, 12.5, 6.3, and 1.6 μM were incubated with cells at 37° C. for 48 hrs. For fixation, cold TCA 50% was used and incubated at 4° C. for 1 h. Wells were washed and dried prior to tincture with 100 μL of SRB 0.4%. To remove excess of SRB, acetic acid was used. For analysis, TRIS-BASE Solution (pH=10.5) was used and shaken prior to reading using an ELISA reader at 540 nm and the software SoftMax Pro 4.8. For each compound, 50% growth inhibition (GI50) was calculated from Sigmoidal dose-response curves (variable-slope) that were generated with data obtained from experiments carried out in triplicates (GI50 values were generated with GraphPad Prism V. 6.02, GraphPad Software, Inc.).
(In SRB staining, fixed cells bind dye roughly in proportion to their protein.)

For assay [6], the system named is MDA-MB-231. The assay is described as follows: Initial screening, SRB assay GI50. In kind it is cell-based. The settings on record: Homo sapiens, 48 hrs. As for the experimental part:
as §6, §7

Assay [7] has as its system MDA-MB-435. The assay is described as follows: Initial screening, SRB assay GI50. Type of assay: cell-based. The settings on record: Homo sapiens, 48 hrs, read-out: MDA-MB435 GI50. As for the experimental part:
as §6, §7

Assay [8] concerns MDA-MB-231. The experiment in a line: Initial screening, inhibition of migration (wound gap). The settings on record: Homo sapiens. Type of assay: cell-based. The procedure: In addition, the inhibition of migration of MDA-MB-231 was determined via the following procedure:
Prior to assays, cells were grown until 80-90% confluence was observed. We used a 75 cm^2 flask for 2.6×10^5 cells/mL in 10 mL and for a 25 cm^2 flask 1.44×10^5 cells/mL in 5 mL. The cells were washed with PBS to remove all traces of FBS. We added 2 mL for a 25 cm^2 flasks or 4 mL for a 75 cm^2 flasks trypsin, and incubated 5-10 min at 37° C. At the end of the incubation time, cells were re-suspended and counted with hemocytometer using 1:2 dilutions with Trypan blue. Subsequently, cell viability was calculated. In a 12 well tissue culture plate, we used the plastic pattern to draw a fine space with a fine marker on the bottom of the plate. Cells were seeded at 1.5-2.2×10^5 cells/mL in 1 mL and incubated for 24 h. Cells were then rinsed with PBS and incubated in starving media (0.5% FBS) overnight. All controls and drugs were tested in triplicate. The negative control for each drug was prepared according to the drug's DMSO concentration. […] The wound was made using a sterile pipette tip of 200 μL. Cells were then rinsed very gently with media without FBS and media with negative controls was added. After a 24 h incubation, the gap distance was evaluated using the software Lumera Infinity Analyze 6.4.0. Pictures were taken at 0, 8, 12 and 24 h using a 10× objective in an Inverted Laboratory Microscope Leica DM IL LED, and an Infinity1-3 3.1 Megapixel USB 2.0 camera CMOS. The percentage of migration was calculated using the following formula: […]

Assay [9] concerns MDA-MB-468. The experiment in a line: Cell viability assay (MTT). In kind it is cell-based. The settings on record: 500 nM, 72 hours. The procedure: as §4
Equal number of cells were seeded in a 24 well plate and incubated with vehicle or compounds according to this disclosure at concentrations between 1 and 0.001 nM for 72 and 120 hrs. Using CellTiter 96 Non-Radioactive Cell Proliferation Assay (Promega, Corp.) according to manufactures' instructions, formazan was used as an indicator of viable cells at an absorbance 570 nm in a Tecan Microplate Reader M100. Data was calculated as fold change from vehicle and fitted using the 4′parameter logic nonlinear regression model in GraphPad Prism software. (n=3 biologic replicates: with 3 technical replicates each).

The test system of assay [10] is MDA-MB-231. The assay is described as follows: Apoptosis assay, caspase 3/7 activity. Type of assay: cell-based, human. The conditions noted are these: 500 nM, 48 hours. The procedure:
(§8) Cells plated at equal density were treated at 500 nM of compounds. After 48 hours, caspase 3/7 activity was measured by luminescence. n=3; * p<0.05, ** p<0.01.
(§9) Equal number of cells were seeded incubated with vehicle or compounds according to this disclosure at 250 or 500 nM for 48 hrs. Apoptosis was measured using a Caspase-Glo3/7 Luminescence Assay Kit as per manufacturer's instructions (Promega, Corp.). Briefly, Caspase-3/7 Glo reagent was added and incubated at room temperature for 60 min and Caspase-3/7 activities were determined by detecting luminescence using Tecan Microplate Reader M100. (n=3 biologic replicates: with 3 technical replicates each).

Assay [11] relates to MDA-MB-435. The experiment in a line: Apoptosis assay, caspase 3/7 activity. Type of assay: cell-based, human. The settings on record: 500 nM, 48 hours. As for the experimental part:
as §8, §9

The subject of assay [12] is MDA-MB-468. The experiment in a line: Apoptosis assay, caspase 3/7 activity. In kind it is cell-based. The settings on record: 500 nM, 48 hours. As for the experimental part: as §8, §9
The next assay deals with T1, Vav2 binding to Rac1 (Homo sapiens, UniProt P63000, G15A).
T1 construct: purchased Cell Biolabs, San Diego; CA; host or cells: Vav2 from MDA-MB-231 cell lysate
The assay is described as follows: Rac1 GEF assay, Rac1(G15A) pulldown. The settings on record: 8 μM, MDA-MB-231 lysates. As for the experimental part:
GST-Rac1 (G15A) beads were pre-incubated with vehicle (0.1% DMSO), or 8 μM EHop-016, or 250 nM Compound 4c for 1 hour followed by incubation with MDA-MB-231 cell lysates (equal total protein). Representative Western blot for Rac1(G15A) or pulldowns immunostained for Vav2 is shown (n=3).
MDA-MB-231 cells in culture medium were lysed in 1% Triton X-100, 20 mM HEPES, pH 7.4, 150 mM NaCl, 5 mm MgCl2, and protease inhibitors and processed. Equal amounts of protein from cleared lysates were incubated for 1 h at 4° C. with glutathione-agarose beads conjugated to GST-Rac1(G15A) nucleotide-free mutant (Cell Biolabs, San Diego. CA) that were preincubated (for 1 h) with vehicle or 8 μm EHop-016 or 0.25 μM Compound 4c. The beads were washed, and the lysates and pull-downs were immunoblotted for Tiam-1, Trio, Ect2, p-REX, or Vav2.

We go through three compounds from patent US20250214973A1, “1,4,5-TRISUBSTITUTED-1,2,3-TRIAZOLES AND USES THEREOF” (UNIVERSITY OF PUERTO RICO, priority 2022, published 2025).

By GI50 is commonly meant the concentration at which growth is held to half of that of the control.

For `CCn1c2ccccc2c2cc(-n3nncc3-c3ccccc3)ccc21` (racemic) [MBQ-167, reference compound], the inhibition at […] in the assay on MDA-MB-231 [1] (MDA-MB-231, 250 nM for 48 hours (footnote a; title says 500 nM), read-out: % growth inhibition MDA-MB-231) came out at 36%; in the assay on Panc-1 [4] (250 nM) it was 40%; in [5] (250 nM) it was 30%. In addition, the cytotoxicity at […] with MDA-MB-231 [1] (250 nM, 48h, text prints MDA-MB-435 TNBC, read-out: inhibition of cell viability) was about 40%. The GI50 in the assay on MDA-MB-435 [2] (Homo sapiens, MDA-MB-435, 72 h, read-out: GI50 MDA-MB-435) worked out at 0.145 µM; in the assay with Panc-1 [3] it was 0.155 µM. Also, in the assay on Panc-1 [4] (500 nM), the inhibition at 0.5 µM was 50%. Further, the inhibition at 0.15 µM in [5] (150 nM) stood at 30%.

Consider `CCn1c2ccccc2c2cc(-n3nnc(C(O)c4cccnc4)c3-c3ccccc3)ccc21` (centres unmarked) [Compound 4b, (1-(9-ethyl-9H-carbazol-3-yl)-5-phenyl-1H-1,2,3-triazol-4-yl) (pyridin-3-yl) methanol], for which the GI50 came out at 0.04 µM in the assay on MCF-7, 8 µM in the assay on MDA-MB-231 [6] and 0.08 µM in the assay with MDA-MB-435 [7]. For the same compound, the inhibition at 0.5 µM in the assay with MDA-MB-231 [8] (at 0.5 μM, read-out: Inh. of migration (converted)) is 25.2%. For the same compound, in the assay with MDA-MB-231 [8] (at 1.6 μM, read-out: Inh. of migration), the inhibition at 1.6 µM stood at 61.4 ± 9.08%. For the same compound, in the assay on MDA-MB-435 [2] (500 nM), the “effect on cell viability, MDA-MB-435” value is “inhibited cell viability”. Also, the cytotoxicity at 0.5 µM in the assay on MDA-MB-435 [2] (Homo sapiens, MDA-MB-435, 500 nM, 72 hours, read-out: decrease in cell viability, MDA-MB-435) is about 80%. Further, the “effect on cell viability, MDA-MB-468” value in the assay with MDA-MB-468 [9] was “inhibited cell viability”. Moreover, the “Caspase 3/7 activity compared to the vehicle, MDA-MB-231” value in the assay with MDA-MB-231 [10] is “increased apoptosis”. Moreover, the “Caspase 3/7 activity compared to the vehicle, MDA-MB-435” value in the assay on MDA-MB-435 [11] is reported as “increased apoptosis”. The “Caspase 3/7 activity, MDA-MB-468” value with MDA-MB-468 [12] is “significantly increased”.

With `CCn1c2ccccc2c2cc(Nc3ccnc(NCCCN4CCOCC4)n3)ccc21` [EHop-016, reference compound], the “inhibition of Vav2 binding to Rac1” value on Vav2 binding to Rac1 is about 80%.
